Tests used:
[1] = cited from earlier work
[2] = tested on: organic anion transporter P1B1; parameters: method as in PMID 34821075; settings: twice-daily gefapixant 45 mg; cited from earlier work
[3] = Safety and tolerability in studies 1 to 4; format: in vivo, human
Procedure: Safety and tolerability for all studies were determined using clinical assessments, including physical examinations, vital signs, standard laboratory tests, 12‐lead electrocardiograms, and adverse events (AEs).

MATE1/2K = settings: cited from earlier work
[4] = parameters: method as in PMID 35248186; settings: patients with RCC or UCC, COUGH-1 and COUGH-2; cited from earlier work

In the case of `COc1cc(C(C)C)c(Oc2cnc(N)nc2N)cc1S(N)(=O)=O` [gefapixant, Gefapixant], the “excreted metabolites, share of the gefapixant dose” value [1] is given as 14%, the “terminal half-life (t1/2)” value [1] is given as “≈ 7 hours” and the “effect on the pharmacokinetics of pitavastatin” value [2] is given as “no effect”. The “serious AEs” value ([3]; all 4 studies) was “no serious AEs”, the “severity of all AEs” value ([3]; all 4 studies) was “mild or moderate” and the “most commonly reported AEs” value ([3]; studies 1 and 2) was “taste related”. The “most common AE” value ([3]; studies 3 and 4) was “headache”, the “effect of inhibiting MATE1/2K via pyrimethamine on gefapixant exposure” value (MATE1/2K) was “does not meaningfully increase” and the 24-hour cough frequency [4] was “significantly reduced”.

From paper PMC9540877, “Clinical Formulation Bridging of Gefapixant, a P2X3‐Receptor Antagonist, for the Treatment of Chronic Cough” (Clinical Pharmacology in Drug Development, 2022)
